Laboratory results reported in patent US20160081959A1 (Glanbia plc, priority 2014, published 2016).
Where two headings read alike, the source gives them in different places.

Key:
[1] = Single dose oral pharmacokinetic study in fasted male Sprague Dawley rats (arginine in plasma, LC-MS/MS); type: in vivo
Experimental: Oral PK was determined in rats for ASI and several comparative compounds.
Test system: Sprague Dawley rats, male. Aged 7-9 weeks at the time of receipt.
Sample size: Study groups—4 groups per study; 5 animals/group.
The test compounds were administered through oral gavage. Oral route of administration is one of the preferred routes of administration in humans.
Study Group 1: Single dose oral pharmacokinetic study of ResArgin in male Sprague Dawley rats at a dose equivalent to 500 mg of L-Arginine/kg body weight. Male Sprague Dawley Rats aged 8-10 weeks were used for experimentation after a minimum 3 days of acclimatization. Fasted animals were administered ResArgin in a recommended vehicle (0.5% (w/v) Carboxymethylcellulose in sterile water) by oral route with a dose equivalent to 500 mg L-Arginine/kg body weight at dose volume of 10 mL/kg body weight.
Under mild isoflurane anesthesia, blood specimens were collected at time points (0.0 h, 0.16 h, 0.25 h, 0.50 h, 1.00 h, 2.00 h, 4.00 h, 6.00 h) post-dose as mentioned in Table 1 into pre-labeled tubes containing anticoagulant (K2EDTA—2 mg/mL blood) during the next 24 hours. Collected blood specimens were centrifuged at 4000 rpm, 4° C. for 10 minutes and plasma was separated and stored at −80° C. until analysis.
Study Group 2: Single dose oral pharmacokinetic study of L-Arginine in male Sprague Dawley rats at a dose of 500 mg/kg body weight. Male Sprague Dawley Rat aged 8-10 weeks were used for experimentation after a minimum 3 days of acclimatization. Fasted animals were administered L-Arginine in a recommended vehicle (0.5% (w/v) Carboxymethylcellulose in sterile water by oral route with 500 mg/kg body weight at dose volume of 10 mL/kg body weight.
Study Group 3: Single dose oral pharmacokinetic study of L-Arginine HCl in male Sprague Dawley rats at a dose equivalent to 500 mg of L-Arginine/kg body weight. Male Sprague Dawley Rats aged 8-10 weeks were used for experimentation after a minimum 3 days of acclimatization. Fasted animals were administered L-Arginine HCl in a recommended vehicle (0.5% (w/v) Carboxymethylcellulose in sterile water) by oral route with a dose equivalent to 500 mg L-Arginine/kg body weight at dose volume of 10 mL/kg body weight.
Male Sprague Dawley Rats aged 8-10 weeks were used for experimentation after a minimum 3 days of acclimatization.
Bioanalytical method(s) for the determination of arginine in Rat plasma were developed using LC-MS/MS. The developed methods were used for plasma sample analysis. Chromatograms were acquired using Analyst® software version 1.4.2. The concentration of the unknown sample was calculated from the following equation using regression analysis with peak area ratio of standard and ISD vs calibration standards concentration, using weighting factor (1/x^2) in accordance with Equation (1): […]
The pharmacokinetic parameters including Cmax, Tmax, AUC0-t, AUC0-inf, T1/2 and MRTlast of the arginine in rat plasma were determined from the concentration time data by using non-compartmental analysis (Phoenix WinNonlin 6.3, Pharsight Corporation, Princeton, N.J., USA).
Statistical analysis of PK parameters was performed by one way ANOVA followed by Dunnett's Post Test (L-Arginine Base vs ResArgin, L-Arginine HCl, and Arginine Silicate Inositol, respectively).

[2] = test system: vasodilatory response; conditions: in vivo; cited from earlier work
[3] = test system: wound healing; conditions: 17 g/day, after two weeks, cited from earlier work
[4] = test system: wounds; conditions: ingested; mice; cited from earlier work
[5] = Human clinical PK/PD/safety study of Nitrosigine (plasma arginine, serum silicon); type: in vivo
Description: See, Kalman D, Feldman S, Samson A, Krieger D., “A clinical evaluation to determine the safety, pharmacokinetics and pharmacodynamics of an inositol-stabilized arginine silicate dietary supplement in healthy adult males,” The FASEB Journal (April 2014) 28(1 Suppl.): LB418.
Purpose: The purpose of this study was to characterize the PK/PD of Nitrosigine®, an inositol-stabilized arginine silicate dietary supplement.
Type: Prospective, pharmacokinetic (PK)/pharmacodynamic (PD)/safety clinical trial.
Dosing: Nitrosigine® was administered as daily doses of 1,500 mg (3×500 mg tablets).
Visit 2: single dose evaluation (0-6 hrs), 1500 mg—this was also utilized as the first dose of the 14 day study. It is noted in addition that Visit 2 is also the beginning of the 14 day study, during which subjects take product once a day for 14 days.
Visit 3: 14 days later, single dose (0-6 hrs)
PK Measurements: Plasma arginine and serum silicon levels were measured after the first dose on Day 1 and again after a dose taken on Day 14, after 14 days of dosing.

[6] = test system: Nitric oxide (NO) levels; experiment: Nitric oxide levels by salivary test strips in the human clinical study; type: in vivo
Experimental: NO was measured using salivary test strips, using a color scale for “Depleted”, “Low”, and “Normal” levels. […] Six subjects who were “Depleted” at Visit 2 increased to “Low” at Visit 3, while no subjects went from “Low” at Visit 2 to “Depleted” at Visit 3. In addition, the Visit 3 treatment after 1 hr gave 3 subjects “Depleted”, 4 subjects “Low”, and 3 subjects “Normal.” This “asymmetric” change pattern was statistically significant (p=0.031).

[7] = test system: blood proteins related to vasodilation and heart health; experiment: Blood proteins after ASI treatment; conditions: in vivo
[8] = test system: wound healing; experiment: Example 1: oral ASI, Kirk, et al. wound healing protocol in human volunteers; type: in vivo; conditions: ASI 1500 mg daily, 2 weeks; expected
Experimental: The Kirk, et al. protocol is used as follows. […] Fifteen volunteers receive a placebo tablet. Fibroplastic wound responses are assessed by inserting a polytetrafluoroethylene catheter subcutaneously into the right deltoid region. Epithelialization is examined by creating a 2×2 cm split thickness wound on the lateral aspect of the upper thigh. Mitogenic response of peripheral blood lymphocytes to concanavalin A, phytohemagglutinin, pokeweed mitogen, and allogeneic stimuli is assayed at the beginning and end of supplementation. Polytetrafluoroethylene catheters were analyzed for alpha-amino nitrogen (assessment of total protein accumulation), hydroxyproline (index of reparative collagen synthesis), and DNA accumulation (index of cellular infiltration).

[9] = test system: wound healing; experiment: Example 2: topical ASI hydrogel, Vits, et al. ablative laser wound protocol; type: in vivo, human; conditions: expected
Experimental: Wound 1 (2013) December 30.
The Vits, et al. protocol is used as follows. In 22 healthy men (experimental group, n=11; control group, n=11) wounds are induced by ablative laser on both thighs. Hydrogel (placebo) is applied on one of the two wounds, and Hydrogel (containing ASI) is applied on the wound of the other thigh. Progress in wound healing was documented via planimetry on days 1, 4 and 7 after wound induction. From day 9 onwards wound inspections were performed daily accompanied by a change of the dressing and a new application of the gel.

[10] = test system: muscle soreness, muscle damage, and recovery; experiment: Example 3: clinical study of muscle soreness, muscle damage and recovery; type: in vivo, human; conditions: ASI 750 mg 2×/day for 14 days with training regimen; expected
Experimental: Clinical Study to measure muscle soreness, muscle damage, and recovery. Crossover PCT.
Study group: n=16 males exercising <150 mins/week.
Secondary endpoints: NO level, blood pressure, heart rate, leg circumference, patient survey/self-assessment, e.g., visual analog scale (VAS) for pain, intramuscular biopsy.

[11] = arginine in plasma, fasted male Sprague Dawley rats, single oral dose equivalent to 500 mg L-Arginine/kg b.w.
[12] = rat, 500 mg/kg, arginine in plasma, fasted male Sprague Dawley rats, single oral dose equivalent to 500 mg L-Arginine/kg b.w.
[13] = rat, 500 mg/kg, arginine in plasma, fasted male Sprague Dawley rats, single oral dose equivalent to 500 mg L-Arginine/kg b.w., read-out: Cmax
[14] = rat, 500 mg/kg, arginine in plasma, fasted male Sprague Dawley rats, single oral dose equivalent to 500 mg L-Arginine/kg b.w., read-out: Tmax
[15] = plasma arginine, rat, oral, 500 mg/kg L-Arginine equivalent

Molecule: N=C(N)NCCC[C@H](N)C(=O)O [L-Arginine Base, L-Arginine]
- AUC% extrap [1, 11]: 8.195 ± 5.9280%
- AUC(0-inf) [1, 12]: 486 ± 114 µg·h/mL
- AUC(0-t) [1, 12]: 445 ± 106 µg·h/mL
- MRT last [1, 12]: 1.66 ± 0.34 h
- half-life [1, 12]: 1.41 ± 0.51 h
- Cmax [1, 13]: 202 ± 54.3 µg/mL
- Tmax [1, 14]: 0.65 ± 0.335 h
- amount that induces a significant vasodilatory response [2]: ca. 5 grams

Molecule: Cl.N=C(N)NCCC[C@H](N)C(=O)O [L-Arginine HCl, L-Arginine hydrochloride]
- AUC% extrap [1, 11]: 27.645 ± 23.5890%
- AUC(0-inf) [1, 12]: 442 ± 122 µg·h/mL
- AUC(0-t) [1, 12]: 306 ± 92.7 µg·h/mL
- MRT last [1, 12]: 2.48 ± 0.368 h
- half-life [1, 12]: 3.08 ± 2.08 h
- Cmax [1, 13]: 94.7 ± 26.2 µg/mL
- Tmax [1, 14]: 1.1 ± 0.548 h
- amount that induces a significant vasodilatory response [2]: ca. 5 grams

Molecule: N=C(N)NCCC[C@H](N)C(=O)O [arginine, L-arginine]
- hydroxyproline and protein accumulation at the wound site vs non-supplemented controls ([3]; 30 elderly patients): significantly greater
- IGF-1 [3]: elevated
- lymphocyte response [3]: elevated

Molecule: O=[Si]=O [silica]
- closing and healing of wounds [4]: effective at helping to close and heal wounds

Molecule: arginine silicate inositol [ASI]
- AUC% extrap [1, 11]: 16.987 ± 10.5790%
- AUCinf [1, 11]: 1499.898 ± 233.6230 µg·h/mL
- AUClast [1, 11]: 1248.990 ± 276.1000 µg·h/mL
- Cmax [1, 11]: 474.300 ± 169.1040 µg/mL
- MRTlast [1, 11]: 2.220 ± 0.2450 h
- T1/2 [1, 11]: 2.159 ± 0.8280 h
- Tmax [1, 11]: 1.100 ± 0.5480 h
- AUCinf increase compared with Arginine base [1, 15]: 3 fold
- AUCinf increase over Arginine base in plasma [1, 15]: 209%
- Cmax increase compared with Arginine base [1, 15]: 2.35 fold
- Cmax increase over Arginine base in plasma [1, 15]: 135%
- adverse events related to the study medication ([5]; 1,500 mg daily for 14 days, 10 subjects): No adverse events related to the study medication
- increase of plasma arginine concentration relative to baseline ([5]; in 30 minutes, single dose 1,500 mg, human): greater than 30%
- Arginine absorption: Tmax Day 1 ([5]; plasma arginine, 10 healthy males, 1,500 mg oral, Day 1): 1.05 ± 0.50 h
- Silicon absorption: Tmax Day 1 ([5]; serum silicon, 10 healthy males, 1,500 mg oral, Day 1): 2.15 ± 1.75 h
- duration of significantly raised blood arginine and silicon levels ([5]; single dose, human): up to 3 hours
- change in NO levels after 14 days of administration ([6]; 1,500 mg/day for two weeks, Visit 2 vs Visit 3): significant increase
- subjects with NO level Depleted ([6]; Visit 3 treatment after 1 hr): 3 subjects
- subjects with NO level Low ([6]; Visit 3 treatment after 1 hr): 4 subjects
- subjects with NO level Normal ([6]; Visit 3 treatment after 1 hr): 3 subjects
- subjects who were Depleted at Visit 2 and increased to Low at Visit 3 ([6]; salivary NO strips, 10 subjects, 14 days daily dosing): Six
- effect on blood proteins related to vasodilation and heart health [7]: significantly enhances
- rate of epithelialization of the skin defect vs placebo [8]: significantly enhanced
- rate of wound healing vs placebo [8]: increased
- serum insulin-like growth factor-1 (IGF-1) levels [8]: significantly elevated
- wound catheter hydroxyproline accumulation and total protein content vs placebo [8]: increase
- wound healing of wounds treated with ASI-containing gel vs placebo hydrogel [9]: more rapid improvement in wound healing
- cytokine markers of inflammation [10]: decrease or improvement
- listed measurement parameters (e.g. NO levels) [10]: improve
- amount with which similar vasodilatory responses have been shown [2]: 750 mg
